# According to patent US20220298135A1, “5-HETEROARYL-PYRIDIN-2-AMINE COMPOUNDS AS NEUROPEPTIDE FF RECEPTOR ANTAGONISTS” (Domain Therapeutics, priority 2019, published 2022):
# Key:
# [1] = target: T1, human NPFFR1 (hNPFFR1) receptor (Homo sapiens, UniProt Q9GZQ6); experiment: Human NPFFR1 evaluation using BRET biosensors (antagonist IC50); assay type: cell-based; conditions: hNPFFR1 transiently over-expressed in HEK-293 T cells; BRET signal; stimulation by EC80 RFRP-3
# T1 construct: expressed in transfected cells; host or cells: HEK-293 T cells, transient co-transfection with polyethylenimine
# Procedure, shortened: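 HEK-293T cells co-transfected with receptor, GαoB and Gi-effector BRET biosensor pair, assayed 48 h later. Compound 10 min, then EC80 RFRP-3 with 10 min luminescence read; IC50 from 20-concentration variable-slope fit, duplicate, two independent experiments.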
# [2] = test system: morphine-induced hyperalgesia; experiment: Morphine-induced hyperalgesia model in the mouse (tail immersion test); assay type: in vivo; conditions: 10 mg/kg s.c.; morphine 10 mg/kg s.c. daily during 8 days; male C57/B16N mice; tail immersion test 47° C.
# Protocol: This method, which detects opioid-induced hyperalgesia, follows those well-known by one skilled in the art and described in the literature (Elhabazi K et al., J Vis Exp. 2014; (89):e51264). The procedure applied to the compounds of the invention is as follows:
# Nociceptive thresholds are assessed using the tail immersion test (TIT). After TIT, mice are treated daily during 8 consecutive days with morphine (10 mg/kg, sub-cutaneous s.c.) +/− tested compounds (10 mg/kg, s.c.) 20 min before morphine injection for example 31 and 32 and twice a day for examples 56 and 143 (20 min before morphine injection, and in the afternoon).
# Mice used were male C57/B16N 8 weeks old at the beginning of the experiment. During TIT the tail of the animal is immersed two-thirds in a water bath at 47° C. and the withdrawal latency is recorded in seconds. The cutoff is 25 seconds, to avoid tissue damage. After TIT mice received an injection depending on their group then are replaced to their home cages.
# FIGS. 1A and 1B show the mean time of tail withdrawal latency in each group of animals. The anti-hyperalgesia effect of the tested compounds was compared to vehicle-treated group using ANOVA test followed by the Bonferroni's test.
# [3] = test system: hyperalgesia induced by the repeated administration of opiate analgesics; conditions: administered in vivo in the rat; cited from earlier work
# T1 sequence (Q9GZQ6 whole entry): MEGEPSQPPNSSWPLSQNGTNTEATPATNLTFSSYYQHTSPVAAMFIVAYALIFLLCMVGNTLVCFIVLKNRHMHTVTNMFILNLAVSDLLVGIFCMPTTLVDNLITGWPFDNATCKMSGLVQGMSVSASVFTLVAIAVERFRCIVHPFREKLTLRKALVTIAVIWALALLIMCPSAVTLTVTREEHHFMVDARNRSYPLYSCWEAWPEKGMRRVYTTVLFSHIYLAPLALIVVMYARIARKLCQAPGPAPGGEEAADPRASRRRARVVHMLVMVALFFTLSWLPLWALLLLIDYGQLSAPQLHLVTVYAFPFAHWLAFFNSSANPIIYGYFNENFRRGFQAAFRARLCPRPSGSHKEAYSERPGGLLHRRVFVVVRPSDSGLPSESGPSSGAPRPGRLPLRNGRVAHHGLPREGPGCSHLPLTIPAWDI
IC50 [1] [nM],melting point [°C],Compound,blockade of morphine-induced hyperalgesia (tail withdrawal latency) [2],antihyperalgesic activity [3]
,,Na-adamantan-1-yl-L-Arg-L-Phe-NH2 acetate [RF9],,antihyperalgesic activity
< 100,142 to 148,"CCc1nc(N)ccc1-c1cccc2ccc(C(=O)N(CC)C3CCCCC3)nc12.Cl [Example 168, 8-(6-amino-2-ethylpyridin-3-yl)-N-cyclohexyl-N-ethylquinoline-2-carboxamide]",,
100 to 1000,99 to 110,"Cl.Nc1ccc(-c2cccc3c2OCCO3)c(N)n1 [Example 38, 3-(2,3-Dihydro-benzo[1,4]dioxin-5-yl)-pyridine-2,6-diamine]",,
< 100,112 to 125,"CCc1nc(N)ccc1-c1cccc2ccc(C(=O)NC3CCOCC3)nc12.Cl [Example 173, 8-(6-amino-2-ethylpyridin-3-yl)-N-(tetrahydro-2H-pyran-4-yl)quinoline-2-carboxamide]",,
100 to 1000,198 to 204,"Cl.Cn1ncc2cccc(-c3ccc(N)nc3N)c21 [Example 26, 3-(1-Methylindazol-7-yl)pyridine-2,6-diamine]",,
> 1000,160 to 200,"CCc1nc(N)ccc1-c1nccc2cccnc12.Cl [Example 100, 6-ethyl-5-(1,7-naphthyridin-8-yl)pyridin-2-amine]",,
< 100,150 to 160,"CCc1nc(N)ccc1-c1cccc2ccc(C(=O)N3CC4CCC(C3)O4)nc12.Cl [Example 171, (8-(6-amino-2-ethylpyridin-3-yl)quinolin-2-yl)(8-oxa-3-azabicyclo[3.2.1]octan-3-yl)methanone]",,
< 100,77 to 88,"Cl.Nc1ccc(-c2cccc3ccncc23)c(N)n1 [Example 32, 3-Isoquinolin-8-yl-pyridine-2,6-diamine]",,
100 to 1000,95 to 120,"CCc1nc(N)ccc1-c1ccccc1-c1ccc(O)nc1.Cl [Example 88, 5-(2-(6-amino-2-ethylpyridin-3-yl)phenyl)pyridin-2-ol]",,
< 100,175 to 185,"CCc1nc(N)ccc1-c1cccc2ccc(C3CCOCC3)nc12.Cl [Example 121, 6-ethyl-5-(2-(tetrahydro-2H-pyran-4-yl)quinolin-8-yl)pyridin-2-amine]",,
> 1000,> 250,"CN1Cc2c(cccc2-c2ccc(N)nc2N)C1=O [Example 27, 4-(2,6-Diamino-3-pyridyl)-2-methyl-isoindolin-1-one]",,
< 100,140 to 144,"CCc1nc(N)ccc1-c1cccc2ccc(C(=O)N3CCCCCC3)nc12.Cl [Example 169, (8-(6-amino-2-ethylpyridin-3-yl)quinolin-2-yl)(azepan-1-yl)methanone]",,
100 to 1000,> 250,"Cl.Nc1ccc(-c2cccc3ccoc23)c(N)n1 [Example 50, 3-(benzofuran-7-yl)pyridine-2,6-diamine]",,
100 to 1000,> 250,"CCc1nc(N)ccc1-c1ccc(C)c2cccnc12.Cl [Example 96, 6-ethyl-5-(5-methylquinolin-8-yl)pyridin-2-amine]",,
< 100,100 to 117,"Cn1ccc2cccc(-c3ccc(N)nc3N)c21 [Example 49, 3-(1-methyl-1H-indol-7-yl)pyridine-2,6-diamine]",,
100 to 1000,233 to 237,"CCc1nc(N)ccc1-c1cccc2c1NC(=O)CC2.Cl [Example 155, 8-(6-amino-2-ethylpyridin-3-yl)-3,4-dihydroquinolin-2(1H)-one]",,

IC50 [1] [nM],melting point [°C],Compound,blockade of morphine-induced hyperalgesia (tail withdrawal latency) [2],antihyperalgesic activity [3]
< 100,> 250,"CCc1nc(N)ccc1-c1cccc2ccc(-c3cnccn3)nc12.Cl [Example 126, 6-ethyl-5-(2-(pyrazin-2-yl)quinolin-8-yl)pyridin-2-amine]",,
< 100,120 to 131,"CCc1nc(N)ccc1-c1cccc2ccc(C(=O)N3CCCOCC3)nc12.Cl [Example 167, (8-(6-amino-2-ethylpyridin-3-yl)quinolin-2-yl)(1,4-oxazepan-4-yl)methanone]",,
< 100,178 to 182,"CCc1nc(N)ccc1-c1cccc2ccc(-c3cnoc3)nc12 [Example 125, 6-ethyl-5-(2-(isoxazol-4-yl)quinolin-8-yl)pyridin-2-amine]",,
< 100,85 to 95,"CCc1nc(N)ccc1-c1c(F)ccc2c1OCCC2.Cl [Example 176, 6-ethyl-5-(7-fluorochroman-8-yl)pyridin-2-amine]",,
100 to 1000,108 to 120,"CCc1nc(N)ccc1-c1csc2ccccc12 [Example 4, 5-Benzo[b]thiophen-3-yl-6-ethyl-pyridin-2-ylamine]",,
100 to 1000,> 250,"CCc1nc(N)ccc1-c1ccccc1-c1cccnc1.Cl [Example 44, 6-Ethyl-5-[2-(3-pyridyl)phenyl]pyridin-2-amine]",,
100 to 1000,> 250,"CCc1nc(N)ccc1-c1c(F)cc(F)c2ccc(=O)[nH]c12.Cl [Example 159, 8-(6-amino-2-ethylpyridin-3-yl)-5,7-difluoroquinolin-2(1H)-one]",,
100 to 1000,> 250,"CCc1nc(N)ccc1-c1ccccc1-c1ccc(F)nc1.Cl [Example 87, 6-ethyl-5-(2-(6-fluoropyridin-3-yl)phenyl)pyridin-2-amine]",,
< 100,111 to 116,"CCc1nc(N)ccc1-c1cccc2ccc(-c3ccccn3)nc12.Cl [Example 119, 6-ethyl-5-(2-(pyridin-2-yl)quinolin-8-yl)pyridin-2-amine]",,
< 100,100 to 140,"CC(C)Cc1nc(N)ccc1-c1cccc2cccnc12.Cl [Example 67, 6-isobutyl-5-(quinolin-8-yl)pyridin-2-amine]",,
< 100,230 to 250,"CCc1nc(N)ccc1-c1c(OC)ccc2cccnc12.Cl [Example 98, 6-ethyl-5-(7-methoxyquinolin-8-yl)pyridin-2-amine]",,
< 100,153 to 169,"CCc1nc(N)ccc1-c1cccc2cc3c(nc12)CCC3.Cl [Example 115, 5-(2,3-dihydro-1H-cyclopenta[b]quinolin-5-yl)-6-ethylpyridin-2-amine]",,
> 1000,120 to 137,"CCc1nc(N)ccc1-c1ccc(C(F)(F)F)c2cccnc12.Cl [Example 75, 6-ethyl-5-(5-(trifluoromethyl)quinolin-8-yl)pyridin-2-amine]",,
< 100,100 to 140,"CCc1nc(N)ccc1-c1cc(C)cc2cccnc12.Cl [Example 77, 6-ethyl-5-(6-methylquinolin-8-yl)pyridin-2-amine]",,
< 100,150 to 190,"CCc1nc(N)ccc1-c1c(F)c(F)cc2cccnc12.Cl [Example 111, 5-(6,7-difluoroquinolin-8-yl)-6-ethylpyridin-2-amine]",,

Compound,IC50 [1] [nM],melting point [°C],blockade of morphine-induced hyperalgesia (tail withdrawal latency) [2],antihyperalgesic activity [3]
"Cl.Nc1ccc(-c2cccc3ccc(=O)[nH]c23)c(N)n1 [Example 56, 8-(2,6-diaminopyridin-3-yl)quinolin-2(1H)-one]",< 100,> 250,significant blockade of morphine-induced hyperalgesia,
"CCc1nc(N)ccc1-c1c(F)ccc2cc(F)cnc12.Cl [Example 143, 5-(3,7-difluoroquinolin-8-yl)-6-ethylpyridin-2-amine]",< 100,245 to 250,significant blockade of morphine-induced hyperalgesia,
